From patent US9579322B2, “Methods for treating neurologic disorders” (EIP Pharma, LLC, priority 2014, dated 2017)

Key:
amyloid plaque load = assay: 2-week pilot study in aged Tg2576 mice; format: in vivo; conditions: 26 month old Tg2576 mice, 2 weeks, versus control animals
[1] = tested on: IL-1β signaling and IL-1β production; assay: Inhibition of IL-1beta signaling versus IL-1beta production; format: cell-based, human; conditions: for potency for inhibition of cytokine (IL-1beta) signaling relative to inhibition of cytokine production: signaling versus production
IL-1β = IL-1β ELISA of hippocampus extracts; format: in vivo, Fischer rats
Description: The primary objective of this study was to investigate whether pre-treatment with compound VX-745 alleviates cognitive defects in aged rats. Plasma concentration of VX-745 was determined with LC-MS/MS at the end of the study from samples collected 1 hour post dosing. In addition, protein levels of PSD95 in ventral cortex and hippocampus, and levels of IL-1β in the hippocampus were analyzed by specific ELISA assays to evaluate the potential anti-inflammatory effects of VX-745 in the brain
One hour after the last vehicle or VX-745 morning dosing, the animals (10 per dosing group) were deeply anesthetized with pentobarbital and blood samples were collected by cardiac puncture. 500 μl of blood was collected into EDTA microtubes, centrifuged, and plasma collected. The brains were perfused with heparinized saline, and the brains were collected. Right hemisphere was post-fixed by immersion in 4% PFA in 0.1 M PB for 24 h. After a brief wash with phosphate buffer, the hemisphere was cryoprotected in 30% sucrose in PB for 2-3 days, after which it was frozen on liquid nitrogen and stored at −80° C. for optional future immunohistochemical analysis. […]
Cortex and hippocampal soluble extracts were analyzed for PSD95 content using an ELISA kit (Cusabio Biotech Ltd., #CSB-EL006938RA, Lot 031154387), while the levels of Il-1β were analyzed only from hippocampus (R&D Systems, #RLB00, Lot 308544).

[2] = tested on: sensory-motor recovery after tMCAO; assay: Transient MCAO in rats, functional recovery; format: in vivo, Sprague-Dawley rats; conditions: for change in cylinder test performance from day 7 to day 35: relative to vehicle; for functional recovery, 7-point neuroscore / functional recovery, 20-point neuroscore / functional recovery, limb placing: day 3 to day 42, versus vehicle
Description: The objective of this study was to investigate whether chronic twice-a-day treatment with VX-745 started at 48 hours post-occlusion provides sensory-motor recovery and neuroprotection in rats subjected to 120 min middle cerebral artery occlusion (tMCAO) at day 0. Seven and 20-point Neuroscore tests were performed to study sensory-motor deficits and general condition on days 1, 3, 7, 14, 21, 28, 35 and 42 post-ischemia. Cylinder test was performed on days 7, 14, 21 and 35 post-ischemia and limb-placing tests on days 1, 3, 7, 14, 21, 28, 35 and 42. Infarct volume was evaluated by T2-MRI at 24 h post-ischemia and rats were allocated to treatment groups based on the lesion data on day 2 and treatment was started after MRI on day 2. Methods—Male Sprague-Dawley rats were subjected to twice-a-day chronic treatment with VX-745 starting at 48 h after 120 min tMCAO. Lesion size was measured at 24 h with MRI and rats were allocated to dosing groups on day 2 (tMCAO performed on day 0) based on lesion size and limb placing results. Rats were treated with 2 different doses and underwent sensorimotor behavioral test throughout the experiment. Seven and 20-point Neuroscore and limb placing tests were performed to study sensory-motor deficits and general condition before occlusion and on days 1, 3, 7, 14, 21, 28, 35 and 42 post-ischemia. Cylinder test was performed before occlusion and on days 7, 14, 21 and 35 post-ischemia. Animals. Altogether 45 adult male Sprague Dawley rats, purchased from Charles River Laboratories (Sulzfeld, Germany), and weighing 250-300 g were used for the experiment. Animals were housed at a standard temperature (22±1° C.) and in a light-controlled environment (lights on from 7 am to 8 pm) with ad libitum access to food and water. • Group A: 15 tMCAO animals treated twice-a-day with vehicle from day 2 to 42 (5 ml/kg, p.o) • Group B: 15 tMCAO animals treated twice-a-day with VX-745 from day 2 to 42 (1.5 mg/kg, p.o). • Group C: 15 tMCAO animals treated twice-a-day with VX-745 from day 2 to 42 (4.5 mg/kg, p.o). Transient MCAO Transient focal cerebral ischemia was produced by MCA occlusion at Day 0 in male Sprague-Dawley rats according to Koizumi with modifications (Koizumi et al. Jpn. J. Stroke 8:1-8, 1986). The rats were anesthetized with 5% isoflurane (in 70% N2O and 30% O2; flow 300 ml/min). During the operation the concentration of anesthetic was reduced to 1.0-2.0%. The rectal temperature was maintained at 37.0±1.0° C. with a homeothermic blanket system. After midline skin incision, the right common carotid artery (CCA) was exposed, and the external carotid artery (ECA) was ligated distal from the carotid bifurcation. A 0.22-mm diameter monofilament nylon thread, with blunted tip, was inserted 22-23 mm into the internal carotid artery (ICA) up to the origin of MCA. After the monofilament insertion, CCA was occluded for 2 hours with a suture. After 120 min of ischemia, the MCA blood flow was restored by removal of the filament and the suture. The wound was closed, disinfected, and the animals were allowed to recover from anesthesia. The rats were carefully monitored for possible post-surgical complications after the tMCAO. The rats were fed with standard laboratory diet suspended in tap water after the tMCAO. To prevent dehydration all rats were given an i.p. injection of saline (4 mL per rat) once or twice-a-day as needed. Drug Delivery. VX-745 or vehicle was administered p.o. (5 ml/kg) starting after MRI at 48 h post-ischemia (i.e. Day 2) and continued twice-a day (morning and afternoon) until endpoint day 42. MRI acquisitions in vivo for all rats were performed at 24 h after tMCAO (i.e. […] Rats were allocated to treatment groups on day 2 based on the lesion data and treatment was started on day 2. A 20-point Neuroscore test was used to assess post-ischemic motor and behavioral deficits. The neurological test was conducted by a blinded investigator at pre-stroke (baseline) and on days 1, 3, 7, 14, 21, 28, 35 and 42 post-ischemia. […]

paw swelling = conditions: 10 mg/kg, reference compound in arthritis model; cited from earlier work
knee degeneration = conditions: rats, 50 mg/kg, compared to control animals; cited from earlier work
hyperalgesic response = conditions: cited from earlier work
[3] = tested on: rheumatoid arthritis (RA); conditions: cited from earlier work
[4] = 250 mg b.i.d, phase 2 clinical, RA patients

## VX-745
Amyloid plaque load
  amyloid plaque load: lower amyloid plaque load than control animals
[1]; human systems, prior, previously undisclosed studies
  IC50 for inhibition of IL-1β signaling relative to IC50 for inhibition of IL-1β production: approximately half
[1]
  potency for inhibition of cytokine (IL-1beta) signaling relative to inhibition of cytokine production: approximately twice
[1]; listed as VX745
  potency for inhibition of cytokine (IL-1beta) signaling relative to inhibition of cytokine production: two-fold higher
IL-1β; 1.5 mg/kg
  IL-1β levels in the hippocampus: no evident effects
IL-1β; 4.5 mg/kg, p=0.038 Mann-Whitney, similar to young rats
  IL-1β levels in the hippocampus: lower relative to the aged vehicle-treated group
[2]; 1.5 mg/kg p.o. twice-a-day
  change in cylinder test performance from day 7 to day 35: a trend (p=0.088, two-sided t-test) towards increased improvement
[2]; 1.5 mg/kg
  functional recovery, 7-point neuroscore: not further improve functional recovery
  functional recovery, 20-point neuroscore: not further improve functional recovery
  functional recovery, limb placing: not further improve functional recovery
[2]; 4.5 mg/kg p.o. twice-a-day
  change in cylinder test performance from day 7 to day 35: not evident
[2]; 4.5 mg/kg
  functional recovery, 7-point neuroscore: not further improve functional recovery
  functional recovery, 20-point neuroscore: not further improve functional recovery
  functional recovery, limb placing: not further improve functional recovery
[2]; all measures, change analysis
  functional recovery, 1.5 mg/kg group compared with 4.5 mg/kg group: consistently better
Paw swelling
  inhibition of paw swelling: not as effective at inhibiting paw swelling as other compounds assayed
Knee degeneration
  inhibition of knee degeneration: statistically significant inhibition of knee degeneration
Hyperalgesic response; 3 mg/kg
  effect on hyperalgesia at the 3 mg/kg dose: minimal effect
Hyperalgesic response; rats, 30 mg/kg, 10 mg/kg and 3 mg/kg
  inhibition of hyperalgesic response: significant inhibition of hyperalgesic response
[3]; [4]
  adverse events in patients: adverse events, including gastrointestinal effects such as diarrhea and abdominal pain, and elevations in liver transaminases
  inflammatory markers and clinical improvement: significant reduction in inflammatory markers and clinical improvement
[3]; 250 mg b.i.d, phase 2 clinical
  mean plasma drug concentrations: approximately 75 ng/m
[3]; humans
  adverse neurological effects in humans: not observed
[3]; treatment of rheumatoid arthritis
  mean blood concentration in the treatment of rheumatoid arthritis: approximately 75 ng/mL
